Aqueous solubility data for one compound are collected here from patent publication US20110312973A1, “SOLID COMPOSITIONS” (priority 2010, published 2011).

A short description of this series: Aqueous solubility. It counts as physicochemical.

Regarding `Cc1cnc(C(=O)N[C@H]2CCCCC/C=C\[C@@H]3C[C@@]3(C(=O)NS(=O)(=O)C3CC3)NC(=O)[C@@H]3C[C@@H](Oc4nc5ccccc5c5ccccc45)CN3C2=O)cn1` [Compound I, (2R,6S,13aS,14aR,16aS,Z)-N-(cyclopropylsulfonyl)-6-(5-methylpyrazine-2-carboxamido)-5,16-dioxo-2-(phenanthridin-6-yloxy)-1,2,3,5,6,7,8,9,10,11,13a,14,14a,15,16,16a-hexadecahydrocyclopropa[e]pyrrolo[1,2-a][1,4]diazacyclopentadecine-14a-carboxamide], the aqueous solubility entry is “low aqueous solubility”.
